In patent US6492385B2, “Quinuclidine-substituted heteroaryl moieties for treatment of disease” (Pharmacia & Upjohn Company, priority 2000, dated 2002):
Structures can show the parent of a compound that is named as a salt.

Biological target: α7 nAChR (Rattus norvegicus, UniProt Q05941)
Assay: [3H]-MLA competition binding assay, rat brain membranes

Sequence of α7 nAChR (Q05941 23-502): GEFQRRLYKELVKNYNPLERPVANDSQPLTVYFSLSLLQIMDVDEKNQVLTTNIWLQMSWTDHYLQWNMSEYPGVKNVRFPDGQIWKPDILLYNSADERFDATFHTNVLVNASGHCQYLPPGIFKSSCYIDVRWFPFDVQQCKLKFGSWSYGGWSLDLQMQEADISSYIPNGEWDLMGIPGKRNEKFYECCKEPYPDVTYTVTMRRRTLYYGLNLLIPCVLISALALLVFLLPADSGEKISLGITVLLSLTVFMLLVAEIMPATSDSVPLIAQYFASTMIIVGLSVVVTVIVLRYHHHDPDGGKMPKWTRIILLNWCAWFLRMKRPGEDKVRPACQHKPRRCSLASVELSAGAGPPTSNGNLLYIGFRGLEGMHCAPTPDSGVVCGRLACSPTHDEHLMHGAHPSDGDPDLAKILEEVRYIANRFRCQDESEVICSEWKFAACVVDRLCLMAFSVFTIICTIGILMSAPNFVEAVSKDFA

Row | Structure (SMILES) | Ki [nM]
1 | COc1ccc(C(=O)N[C@H]2CN3CCC2CC3)s1 [Example 19, N-[(3R)-1-Azabicyclo[2.2.2]oct-3-yl]-5-methoxy-thiophene-2-carboxamide Hydrochloride] | 2 to 4
2 | O=C(N[C@H]1CN2CCC1CC2)c1ccc(-c2ccccc2O)s1 [Example 41, N-[(3R)-1-Azabicyclo[2.2.2]oct-3-yl]-5-(2-hydroxyphenyl)-thiophene-2-carboxamide Hydrochloride] | 3 to 4
